Experimental data reported in patent US20230150951A1, “2,5- OR 2,6-DISUBSTITUTED HYDROQUINONE DERIVATIVES WITH AT LEAST ONE CARBOXY, SULFO OR AMIDO GROUP USEFUL AS MEDICAMENTS” (OM PHARMA SA, priority 2020, published 2023).
Read-outs that look alike come from different tables or passages of the source.

Tests used:
Assay type in all cases: cell-based
GM-CSF = experiment: Cytokine release after LPS induction on human whole blood: GM-CSF
Experimental: (§1) Aim of this in vitro method is to assess compounds effects on release of a panel of cytokines from whole blood following lipopolysaccharide (LPS) induced inflammatory reaction. Whole blood was incubated with compounds for 1 h prior to LPS induction. Cytokine levels in blood were measured using a multiplex FACS-based panel.
(§2) IC50 values determined for the tested compounds expressed in microM [μM] and the values for the inhibition of cytokines were listed for each compound.
(§3) Effect on cytokines release after LPS induction was performed on the compounds dissolved in DMSO or H2O to reach 10-fold concentrated stock solutions and dissolved in culture media.
(§4) Test system: Whole blood was removed from a single donor (into lithium heparin coated tubes; BD Vacutainer; 367886) and diluted 1:5 with RPMI 1640 (Thermo Fisher, 61870036). Within 30 minutes of sampling, blood was incubated with compounds for 1 h prior to LPS stimulation (O111:B4—Sigma L4391; 10 ng/ml final concentration). Stimulation continued under standard cell culture conditions (37° C. with 5% CO2) overnight (18 h), after which plates were centrifuged and supernatant removed and frozen at −80° C. until used for analyses.
(§5) Dilution of test compounds: 10×concentrated solutions (concerning to the final assay concentrations) of each test compound were prepared with the appropriate solvent (in DMSO or in water). These 10× compound solutions (10 μl) were then added to 90 μl pre-diluted whole blood (whole blood: RPMI1640, 1:5) resulting in the final assay concentration.
(§6) Test method: Diluted whole blood (80 μl) was pre-incubated with compounds (10 μl) to give final assay concentrations of 100, 30, 10, 3, 1, 0.3 and 0.1×10^−6M. Blood was incubated at 37° C. with 5% CO2 for 1 h. LPS was diluted in cell culture media to a concentration of […]; 10 μl was added to the whole blood to give a final concentration of 10 ng/ml. Plates were incubated at 37° C. for 18 h. Plates were centrifuged at 3,000 RPM for 5 minutes at 4° C. and supernatant removed and frozen at −80° C. until FACS analysis was carried out.
(§7) Cytokine release was measured using a custom multiplex system (ELISA Genie) according to manufacturers instructions. Prepared samples were run on an Attune NxT flow cytometer (Thermo Fisher).
(§8) Quantification of cytokine release inhibition: known concentration standards were run as part of the cytokine panel to allow quantification of each cytokine concentration in each sample. This was carried out using FCAP Array v3.0 software.
(§9) Results: The dose response relationship on cytokine release following LPS induction of inflammatory response in whole blood was assessed for all compounds. IC50 values were determined for each compound for a panel of cytokines (GM-CSF, IFN-gamma, IL-1beta, IL-2, IL-4, IL-5, IL-6, IL-8, IL-9, IL-10, IL-12p40, IL-13, IL-17A, IL-17F, IL-18, IL-21, IL-22, IL-33, TGF-beta, TNF-alpha, TNF-beta).

IFN-gamma = experiment: Cytokine release after LPS induction on human whole blood: IFNγ
Experimental: as §1, §2, §3, §4, §5, §6, §7, §8, §9

IL-18 = experiment: Cytokine release after LPS induction on human whole blood: IL-18
Experimental: as §1, §2, §3, §4, §5, §6, §7, §8, §9

IL-9 = experiment: Cytokine release after LPS induction on human whole blood: IL-9
Experimental: as §1, §2, §3, §4, §5, §6, §7, §8, §9

Human neutrophils [1] = experiment: Neutrophil adhesion under static conditions; conditions: fMLP-stimulated adhesion to fibrinogen; method: 40 μM and 80 μM, concentration of the value not stated
In short: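 Donor buffy-coat neutrophils (3×10^6/ml, PBS with Ca/Mg, 10% FCS, pH 7.2) preincubated 30 min at 37° C with 40 μM or 80 μM compound, then stimulated 1 min at 37° C with 1 nM fMLP on fibrinogen-coated glass. Adherent cells fixed and counted by computer; mean ± SD, unpaired t-test.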

IL-1beta = experiment: Cytokine release after LPS induction on human whole blood: IL-1β
Experimental: as §1, §2, §3, §4, §5, §6, §7, §8, §9

Human neutrophils [2] = experiment: Inhibition of ROS production in human neutrophils (isoluminol chemiluminescence); conditions: Homo sapiens, Neutrophil, fMLP+TNF-α stimulated PMN
In short: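 Extracellular ROS measured as isoluminol-amplified chemiluminescence following 1 μM fMLP activation on fibrinogen-coated plates, readings every 25 sec over 250 sec minus HBSS/isoluminol background. Beforehand, cells were treated with compounds at 0.1, 0.3, 1, 3 or 10 μM (30 min, 37° C) and TNF-α (20 ng/ml, 10 min); duplicate or triplicate.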

IL-2 = experiment: Cytokine release after LPS induction on human whole blood: IL-2
Experimental: as §1, §2, §3, §4, §5, §6, §7, §8, §9

[3] = Homo sapiens, LPS 10 ng/ml, 18 h, read-out: Whole Blood: GM-CSF IC50
[4] = human whole blood, inhibition of LPS induced inflammation, read-out: IC50 GM-CSF
[5] = Homo sapiens, LPS 10 ng/ml, 18 h, read-out: Whole Blood: IFNγ IC50
[6] = human whole blood, inhibition of LPS induced inflammation, read-out: IC50 IFNγ
[7] = Homo sapiens, LPS 10 ng/ml, 18 h, read-out: Whole Blood: IL-18 IC50
[8] = human whole blood, inhibition of LPS induced inflammation, read-out: IC50 IL-18
[9] = Homo sapiens, LPS 10 ng/ml, 18 h, read-out: Whole Blood: IL-9 IC50
[10] = human whole blood, inhibition of LPS induced inflammation, read-out: IC50 IL-9
[11] = Homo sapiens, LPS 10 ng/ml, 18 h, read-out: Whole Blood: IL-1β IC50
[12] = human whole blood, inhibition of LPS induced inflammation, read-out: IC50 IL-1b
[13] = Homo sapiens, LPS 10 ng/ml, 18 h, read-out: Whole Blood: IL-2 IC50
[14] = human whole blood, inhibition of LPS induced inflammation, read-out: IC50 IL-2

| Structure (SMILES) | IC50 (GM-CSF; [3]) [µM] | IC50 (GM-CSF; [4]) [µM] | IC50 (IFN-gamma; [5]) [µM] | IC50 (IFN-gamma; [6]) [µM] | IC50 (IL-18; [7]) [µM] | IC50 (IL-18; [8]) [µM] | IC50 (IL-9; [9]) [µM] | IC50 (IL-9; [10]) [µM] | Neutrophil adhesion inhibition (Human neutrophils [1]) [%] | IC50 (IL-1beta; [11]) [µM] | IC50 (IL-1beta; [12]) [µM] | inhibition at 0.3 µM (Human neutrophils [2]) [%] | IC50 (Human neutrophils [2]) [µM] | IC50 (IL-2; [13]) [µM] | IC50 (IL-2; [14]) [µM] | further results |
| --- | --- | --- | --- | --- | --- | --- | --- | --- | --- | --- | --- | --- | --- | --- | --- | --- |
| O=C(O)c1cc(O)c(C(=O)Nc2ccccc2-c2nnn[nH]2)cc1O [Ia-001a-Tz, 4-(2-(1H-tetrazol-5-yl)phenyl-aminocarbonyl)-2,5-dihydroxybenzoic acid] | > 100 | 100 | > 100 | 100 | > 100 | 100 | 8.63 | 8.63 | 69.75 | > 100 | 100 | 54.3 | 1.54 | 7.99 | 7.99 |  |
| O=C(O)c1cc(O)c(C(=O)Nc2ccccc2S(=O)(=O)O)cc1O [Ia-001c, 2,5-dihydroxy-4-(2-sulfophenylaminocarbonyl)benzoic acid] | > 100 | 100 | 0.44 | 0.44 | > 100 | 100 | 46.9 | 46.9 | 31.33 | > 100 | 100 | 40.4 | 2.4 | 12.8 | 12.8 |  |
| O=C(O)c1cc(O)c(C(=O)Nc2ccc(-c3nnn[nH]3)cc2)cc1O [Ia-003a-Tz, 4-(4-(1H-tetrazol-5-yl)phenyl-aminocarbonyl)-2,5-dihydroxybenzoic acid] | > 100 | 100 | 2.95 | 2.95 | > 100 | 100 | 3.62 | 3.62 | 30.33 | > 100 | 100 | 62.2 | 2.49 | 43 | 43 |  |
| O=C(O)c1cc(NC(=O)c2cc(O)c(C(=O)O)cc2O)cc(C(=O)O)c1 [Ia-015a, 5-(4-carboxy-2,5-dihydroxybenzamido)isophthalic acid] | 2.76 | 2.76 | > 100 | 100 | > 100 | 100 | 1.47 | 1.47 | 17.38 | > 100 | 100 | 43.8 | 0.387 | 7.08 | 7.08 |  |
| O=C(O)c1cc(NC(=O)c2cc(O)c(C(=O)O)cc2O)cc(NC(=O)c2cc(O)c(C(=O)O)cc2O)c1 [Ib-010a, 3,5-bis(2,5-dihydroxy-4-carboxybenzoylamino)benzoic acid] | > 100 | 100 | 2.22 | 2.22 | > 100 | 100 | 11.6 | 11.6 | 1.5 | 33.3 | 33.3 | 71.8 | 1.06 | 2.74 | 2.74 |  |
| CCOC(=O)c1cc(NC(=O)c2cc(O)c(C(=O)OCC)cc2O)cc(NC(=O)c2cc(O)c(C(=O)OCC)cc2O)c1 [Ib-010a-E3, ethyl 3,5-bis(2,5-dihydroxy-4-ethoxycarbonylbenzoylamino)benzoate] | > 100 | 100 | 2.79 | 2.79 | > 100 | 100 | 26.8 | 26.8 | 79.5 | > 100 | 100 | 36.4 | 6.52 | 36.2 | 36.2 |  |
| O=C(O)c1cc(NC(=O)c2cc(O)c(C(=O)Nc3ccccc3-c3nnn[nH]3)cc2O)ccc1O [Ic-001a-Tz/004a, 5-(4-(2-(1H-tetrazol-5-yl)phenylaminocarbonyl)-2,5-dihydroxybenzamido)-2-hydroxy benzoic acid] |  |  |  |  |  |  |  |  | 96.99 |  |  | 82.8 |  |  |  | IC50 (GM-CSF; Homo sapiens, 18 h, read-out: Whole Blood: GM-CSF IC50): 3.4 µM; IC50 (GM-CSF; Homo sapiens, read-out: IC50 GM-CSF): 3.4 µM; IC50 (IFN-gamma; Homo sapiens, 18 h, read-out: Whole Blood: IFNγ IC50): 0.61 µM; IC50 (IFN-gamma; Homo sapiens, read-out: IC50 IFNγ): 0.61 µM; IC50 (IL-18; Homo sapiens, 18 h, read-out: Whole Blood: IL-18 IC50): 46.6 µM; IC50 (IL-18; Homo sapiens, read-out: IC50 IL-18): 46.6 µM; IC50 (IL-9; Homo sapiens, 18 h, read-out: Whole Blood: IL-9 IC50): 8.48 µM; IC50 (IL-9; Homo sapiens, read-out: IC50 IL-9): 8.48 µM; IC50 (IL-1beta; Homo sapiens, 18 h, read-out: Whole Blood: IL-1β IC50): > 100 µM; IC50 (IL-1beta; Homo sapiens, read-out: IC50 IL-1b): 100 µM; IC50 (IL-2; Homo sapiens, 18 h, read-out: Whole Blood: IL-2 IC50): 4.91 µM; IC50 (IL-2; Homo sapiens, read-out: IC50 IL-2): 4.91 µM |
| O=C(Nc1ccccc1-c1nnn[nH]1)c1cc(O)c(C(=O)Nc2ccccc2-c2nnn[nH]2)cc1O [Ic-001aTz2, N1,N4-bis(2-(1H-tetrazol-5-yl)phenyl)-2,5-dihydroxyterephthalamide] | > 100 |  | 1.38 |  | 33.9 |  | 9.13 |  | 97.15 | > 100 |  | 60.6 |  | 9.45 |  |  |
| O=C(O)c1cc(NC(=O)c2cc(O)c(C(=O)Nc3ccc(O)c(C(=O)O)c3)cc2O)ccc1O [Ic-007a, 5-(4-(3-carboxy-4-hydroxyphenylaminocarbonyl)-2,5-dihydroxybenzamido)-2-hydroxy benzoic acid] | > 100 | 100 | 1.44 | 1.44 | > 100 | 100 | 27.1 | 27.1 | 57.5 | > 100 | 100 | 58 | 2.7 | > 100 | 100 |  |
